What all share (type): cell-based
For experiment [1], the target named is T1, Ecdysone receptor (Drosophila melanogaster) (UniProt P34021+P20153). Briefly: Agonist activity at ecdysone receptor in Drosophila melanogaster S2 cells at 100 uM after 24 hr by luciferase reporter gene assay relative to 20-hydroxyecdysone.
For experiment [2], the target named is T2, Ecdysone receptor (Drosophila melanogaster, UniProt P20153+P34021).
T2 sequence (P34021 whole entry): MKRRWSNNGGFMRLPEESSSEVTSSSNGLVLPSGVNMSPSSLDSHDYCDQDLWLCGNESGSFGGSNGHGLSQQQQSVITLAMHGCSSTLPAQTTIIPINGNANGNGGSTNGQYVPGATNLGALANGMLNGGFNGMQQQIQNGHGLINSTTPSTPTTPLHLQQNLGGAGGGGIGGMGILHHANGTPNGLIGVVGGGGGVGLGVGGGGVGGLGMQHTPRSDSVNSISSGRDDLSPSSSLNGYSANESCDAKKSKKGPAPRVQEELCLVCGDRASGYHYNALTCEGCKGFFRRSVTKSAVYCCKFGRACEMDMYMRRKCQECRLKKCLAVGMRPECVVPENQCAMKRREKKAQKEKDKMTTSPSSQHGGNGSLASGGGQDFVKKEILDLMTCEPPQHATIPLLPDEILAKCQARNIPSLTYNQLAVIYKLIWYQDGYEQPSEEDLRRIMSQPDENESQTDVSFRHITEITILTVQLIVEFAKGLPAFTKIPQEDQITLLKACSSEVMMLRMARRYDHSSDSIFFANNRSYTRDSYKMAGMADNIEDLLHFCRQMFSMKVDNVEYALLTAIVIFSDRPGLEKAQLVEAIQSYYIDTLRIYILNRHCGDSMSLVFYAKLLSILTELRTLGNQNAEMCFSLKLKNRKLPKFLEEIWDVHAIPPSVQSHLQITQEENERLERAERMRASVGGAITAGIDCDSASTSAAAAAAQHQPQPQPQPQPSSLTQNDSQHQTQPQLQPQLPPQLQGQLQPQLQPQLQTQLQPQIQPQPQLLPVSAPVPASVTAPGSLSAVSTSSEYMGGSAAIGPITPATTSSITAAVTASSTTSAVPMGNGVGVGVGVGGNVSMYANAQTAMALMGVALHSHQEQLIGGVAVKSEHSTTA
T2 sequence (P20153 whole entry): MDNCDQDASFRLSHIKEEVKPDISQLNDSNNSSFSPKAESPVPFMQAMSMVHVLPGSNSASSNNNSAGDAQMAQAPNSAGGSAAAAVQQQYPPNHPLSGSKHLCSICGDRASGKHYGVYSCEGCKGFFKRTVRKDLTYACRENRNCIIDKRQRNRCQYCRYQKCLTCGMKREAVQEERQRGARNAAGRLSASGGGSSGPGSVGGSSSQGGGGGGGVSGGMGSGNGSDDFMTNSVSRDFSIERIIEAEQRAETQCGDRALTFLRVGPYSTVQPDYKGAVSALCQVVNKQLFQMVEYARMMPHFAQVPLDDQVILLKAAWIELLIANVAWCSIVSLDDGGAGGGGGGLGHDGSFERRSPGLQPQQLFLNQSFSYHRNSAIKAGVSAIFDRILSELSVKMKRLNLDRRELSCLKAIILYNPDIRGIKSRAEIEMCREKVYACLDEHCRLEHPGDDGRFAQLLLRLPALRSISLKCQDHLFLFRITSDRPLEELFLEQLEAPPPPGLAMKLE
Description: (§1) Agonist activity at ecdysone receptor in Drosophila melanogaster S2 cells after 24 hr by luciferase reporter gene assay.

The target in experiment [3] is T3, Ecdysone receptor (Bombyx mori, UniProt P49881).
T3 sequence (P49881 whole entry): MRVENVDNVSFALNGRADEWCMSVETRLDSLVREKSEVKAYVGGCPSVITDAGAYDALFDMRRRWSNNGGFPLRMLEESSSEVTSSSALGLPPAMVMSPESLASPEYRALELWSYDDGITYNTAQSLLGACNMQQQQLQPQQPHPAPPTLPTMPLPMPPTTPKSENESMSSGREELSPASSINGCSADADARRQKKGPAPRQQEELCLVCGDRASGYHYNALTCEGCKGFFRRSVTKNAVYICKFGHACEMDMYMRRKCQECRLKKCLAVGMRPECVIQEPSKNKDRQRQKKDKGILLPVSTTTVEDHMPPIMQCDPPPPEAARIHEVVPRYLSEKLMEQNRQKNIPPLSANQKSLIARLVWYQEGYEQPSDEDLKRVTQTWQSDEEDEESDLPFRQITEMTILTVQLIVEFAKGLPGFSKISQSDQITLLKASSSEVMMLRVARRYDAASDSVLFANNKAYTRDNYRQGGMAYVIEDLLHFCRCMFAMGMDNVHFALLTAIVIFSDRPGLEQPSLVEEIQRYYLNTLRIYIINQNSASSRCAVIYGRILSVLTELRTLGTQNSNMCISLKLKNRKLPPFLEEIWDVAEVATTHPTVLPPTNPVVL
Briefly: Agonist activity at ecdysone receptor in Bombyx mori Bm5 cells after 24 hr by luciferase reporter gene assay.

The target in experiment [4] is T1, Ecdysone receptor (Drosophila melanogaster). The experiment is described as §1.

As usually defined, the EC50 is the concentration at which the effect is half-maximal.

Each structure is given as a SMILES string. Calls of active or inactive are those of the source. The calls are words filed in the database; no cut-off is given here.

`O=C(NN(C(=O)c1ccccc1)c1ccccc1)c1ccccc1` registered an Efficacy in experiment [1] of 6%. Moreover, the results for the EC50 in experiment [2] and in experiment [3] were more than 100 µM and 25.7 µM, respectively.
On to `CCC(CC)(NC(=O)c1ccc2c(c1C)CCCO2)C(=O)c1cc(C)cc(C)c1`, for which, in experiment [4], the pEC50 entry was “inactive”.
Same read-out and setting: the value for `CCc1ccc(C(=O)NC(CC)(CC)C(=O)c2cc(C)cc(C)c2)cc1` was “inactive”.
`CC(C)(C)N(NC(=O)c1ccccc1)C(=O)c1ccc(Cl)cc1Cl` displayed an Efficacy in experiment [1] of 40%. Further, the EC50 in experiment [2] is 148 µM; in experiment [3], 0.117 µM.
For `COc1ccc(C(=O)NN(C(=O)c2ccccc2Cl)C(C)(C)C)cc1`, in that order: 112%, 11.2 µM and 0.0513 µM.
With `O=C(NN(C(=O)c1ccccc1)C1CCCCC1)c1ccccc1`, the Efficacy in experiment [1] turned out to be 18%. In addition, the EC50 in experiment [2] is more than 100 µM; in experiment [3], 0.891 µM.
In experiment [1], `CC(C)(C)N(NC(=O)c1cccc(Cl)c1Cl)C(=O)c1ccccc1Cl` gave an Efficacy of 74%. Besides, the EC50 in experiment [2] was 7.76 µM; in experiment [3], 0.00933 µM.
For `CC(C)(C)N(Cc1ccccc1)NC(=O)c1ccccc1`, in experiment [1], the Efficacy is 1%. In experiment [2], this compound had an EC50 of more than 100 µM.
In the case of `O=C(NN(CC1CCCCC1)C(=O)c1ccccc1)c1ccccc1`, the Efficacy in experiment [1] was 1%. In addition, the half-maximal effective concentration (EC50) in experiment [2] was more than 100 µM; in experiment [3], 1.7 µM.
For `CC(C)CN(NC(=O)c1ccccc1)C(=O)c1ccccc1`, in that order: 33%, more than 100 µM and 2.88 µM.
In experiment [1], `CCCCCC(=O)NN(C(=O)c1cc(C)cc(C)c1)C(C)(C)C` displayed an Efficacy of 36%. Besides, the EC50 in experiment [2] is more than 100 µM; in experiment [3] it was 0.0794 µM.
In the same order, the values of `Cc1cccc(C(=O)NN(C(=O)c2ccccc2Cl)C(C)(C)C)c1C` are 76%, 11.5 µM and 0.02 µM.
In the same order, the values of `CCCCCCC(=O)NN(C(=O)c1ccccc1Cl)C(C)(C)C` are 10%, more than 100 µM and 0.741 µM.
In the case of `CCc1ccc(C(=O)NC(C(=O)c2cc(C)cc(C)c2)C(C)(C)C)cc1` (racemic), the pEC50 result in experiment [4] is “inactive”.
In experiment [1], `CC(C)(C)N(NC(=O)c1ccc(Cl)cc1)C(=O)c1ccccc1Cl` returned an Efficacy of 52%. Moreover, the EC50 is 81.3 µM in experiment [2] and 0.115 µM in experiment [3].
The compound `CCCCN(NC(=O)c1ccccc1)C(=O)c1ccccc1` showed an Efficacy in experiment [1] of 4%. In addition, the results for the EC50 in experiment [2] and in experiment [3] were more than 100 µM and 7.08 µM, respectively.
In experiment [1], `COc1cccc(C(=O)NN(C(=O)c2ccccc2Cl)C(C)(C)C)c1` had an Efficacy of 58%. Besides, the EC50 in experiment [2] was 72.4 µM; in experiment [3] it was 0.0525 µM.
In the same order, the values of `CC(C)(C)N(NC(=O)c1ccccc1I)C(=O)c1ccccc1Cl` are 54%, 87.1 µM and 1.29 µM.
For `Cc1cc(C)cc(C(=O)N(NC(=O)c2ccccc2)C(C)(C)C)c1`, in that order: 57%, 66.1 µM and 0.0692 µM.
In the same order, the values of `Cc1cccc(C(=O)NN(C(=O)c2ccccc2Cl)C(C)(C)C)c1` are 48%, 107 µM and 0.603 µM.
Regarding `CCc1ccc(C(=O)NN(C(=O)c2ccccc2)C(C)(C)C)cc1`, the Efficacy in experiment [1] came to 52%. Further, the EC50 in experiment [2] is 5.5 µM; in experiment [3], 0.0049 µM.
For `CC(C)(C)N(NC(=O)c1cccc(F)c1)C(=O)c1ccccc1Cl`, in that order: 76%, 25.7 µM and 0.0692 µM.
As to `CC(C)(C)N(NC(=O)c1cccc(C#N)c1)C(=O)c1ccccc1Cl`, in experiment [1], the Efficacy was found to be 67%. The 50% effective concentration (EC50) in experiment [2] is 36.3 µM; in experiment [3], 0.955 µM.
For `CCOc1cccc(C(=O)NN(C(=O)c2cc(C)cc(C)c2)C(C)(C)C)c1C`, in that order: 71%, 12 µM and 0.0525 µM.
In the case of `CC(C)c1ccc(C(=O)NN(C(=O)c2ccccc2Cl)C(C)(C)C)cc1`, the Efficacy in experiment [1] worked out at 88%. The EC50 in experiment [2] was 12 µM; in experiment [3], 0.0245 µM.
For `CCc1ccc(C(=O)NN(C(=O)c2cccc3ccccc23)C(C)(C)C)cc1`, in that order: 53%, 10.5 µM and 0.0132 µM.
Take `COc1cccc(C(=O)NN(C(=O)c2cc(C)cc(C)c2)C(C)(C)C)c1`: the Efficacy in experiment [1] was determined as 60%. The results for the EC50 in experiment [2] and in experiment [3] were 45.7 µM and 0.0661 µM, respectively.
In the same order, the values of `COc1cccc(C(=O)NN(C(=O)c2ccccc2Cl)C(C)(C)C)c1C` are 77%, 16.6 µM and 0.0155 µM.
Compound `Cc1cc(C)c(Cl)c(C(=O)N(NC(=O)c2ccccc2)C(C)(C)C)c1` displayed an Efficacy in experiment [1] of 2%. The EC50 in experiment [2] is more than 100 µM.
`Cc1ccc(C)c(C(=O)NN(C(=O)c2ccccc2Cl)C(C)(C)C)c1` gave an Efficacy in experiment [1] of 46%. Besides, the EC50 in experiment [2] was 107 µM; in experiment [3] it was 1.62 µM.
In the same order, the values of `CC(C)(C)N(NC(=O)c1ccc(F)cc1)C(=O)c1ccccc1Cl` are 62%, 37.2 µM and 0.389 µM.
In the same order, the values of `CC(C)(C)N(NC(=O)c1cccc(Br)c1)C(=O)c1ccccc1Cl` are 80%, 13.2 µM and 0.191 µM.
For `Cc1cc(C)cc(C(=O)N(NC(=O)CCC(C)C)C(C)(C)C)c1`, in that order: 35%, more than 100 µM and 0.0912 µM.
With `CC(C)(C)N(NC(=O)c1ccc(C#N)cc1)C(=O)c1ccccc1Cl`, the Efficacy in experiment [1] was 52%. Also, the EC50 is 93.3 µM in experiment [2] and 0.603 µM in experiment [3].
In the same order, the values of `Cc1ccc(C(=O)NN(C(=O)c2ccccc2Cl)C(C)(C)C)cc1C` are 60%, 66.1 µM and 0.0871 µM.
In the same order, the values of `CC(C)(C)N(NC(=O)c1ccccc1Br)C(=O)c1ccccc1Cl` are 59%, 60.3 µM and 0.316 µM.
For `Cc1ccccc1C(=O)NN(C(=O)c1ccccc1Cl)C(C)(C)C`, in that order: 83%, 25.7 µM and 0.0724 µM.
In experiment [1], `CCc1ccc(C(=O)NN(C(=O)C2CC=CCC2)C(C)(C)C)cc1` (configuration not stated) gave an Efficacy of 1%. The EC50 is more than 100 µM in experiment [2] and 1 µM in experiment [3].
In the same order, the values of `CC(C)(C)N(NC(=O)c1ccccc1F)C(=O)c1ccccc1Cl` are 73%, 33.9 µM and 0.0513 µM.
For the compound `CCc1ccccc1C(=O)N(NC(=O)c1ccccc1)C(C)(C)C`, in experiment [1], the Efficacy was found to be 50%. The figures for the EC50 in experiment [2] and in experiment [3] were 97.7 µM and 0.589 µM, respectively.

The values above are taken from ChEMBL document CHEMBL3045195, “Comparison of the activity of non-steroidal ecdysone agonists between dipteran and lepidopteran insects, using cell-based EcR reporter assays” (Pest Manag Sci, 2010).
